Source: US8889878B2, “Haloalky-substituted amides as insecticides and acaricides” (Bayer CropScience AG, priority 2009, dated 2014)
Blank lines part the entries; values can stand above or below the compound they belong to.

Columns and labels:
[1] = tested on: armyworm (Spodoptera frugiperda); assay: Spodoptera frugiperda test (SPODFR spray treatment), Example 6; assay type: in vivo; conditions: application rate 20 g/ha, maize leaf discs sprayed, after 7 days
Method: Spodoptera frugiperda Test (SPODFR Spray Treatment)
(§1) • Solvent: 78.0 parts by weight of acetone • 1.5 parts by weight of dimethylformamide • Emulsifier: 0.5 part by weight of alkylaryl polyglycol ether
To prepare an active ingredient formulation, 1 part by weight of active ingredient was mixed with the stated amounts of solvent and emulsifier, and the concentrate was diluted with emulsifier-containing water to the desired concentration. Leaf discs from maize (Zea mays) are sprayed with an active ingredient formulation of the desired concentration and, after drying, populated with caterpillars of the armyworm (Spodoptera frugiperda).
After 7 days, the efficacy in % is determined. 100% means that all caterpillars were killed; 0% means that no caterpillars were killed.

[2] = tested on: mustard beetle (Phaedon cochleariae); assay: Phaedon test (PHAECO spray treatment), Example 7; assay type: in vivo; conditions: application rate 20 g/ha, china cabbage leaf discs sprayed, after 7 days
Procedure, shortened: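 Spray formulation (acetone/DMF with alkylaryl polyglycol ether, diluted in emulsifier-containing water) applied to Chinese cabbage leaf discs, which were dried and then stocked with mustard beetle larvae. Efficacy scored at 7 days as % larvae killed (100% all, 0% none).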

[3] = logP by HPLC on reverse-phase column (EEC Directive 79/831 Annex V.A8); assay type: physicochemical; conditions: for logP: HPLC-MS
Method: The logP values reported in the above Tables and Preparation Examples were determined according to EEC Directive 79/831 Annex V.A8 by HPLC (High Performance Liquid Chromatography) on a reverse-phase column (C18). Temperature 43° C.

[4] = tested on: Tick nymphs (Amblyomma hebraeum); assay: Amblyomma hebaraeum test (AMBYHE), Example 9; assay type: in vivo; conditions: application rate 100 ppm, immersed one minute, after 42 days
Method: Amblyomma hebaraeum Test (AMBYHE) • Solvent: dimethyl sulphoxide To prepare an appropriate active ingredient formulation, 10 mg of active ingredient are mixed with 0.5 ml of dimethyl sulphoxide, and the concentrate is diluted with water to the desired concentration. Tick nymphs (Amblyomma hebraeum) are placed into perforated plastic cups and immersed in the desired concentration for one minute. The ticks are transferred onto filter papers in a Petri dish and stored in a climate-controlled cabinet. After 42 days, the kill rate in % is determined. 100% means that all ticks were killed; 0% means that no ticks were killed.

[5] = tested on: Boophilus microplus females of the SP-resistant Parkhurst strain; assay: Boophilus microplus test (DIP), Example 10; assay type: in vivo; conditions: application rate 100 ppm, after 7 days
Method: Boophilus microplus Test (DIP)
Test animals: adult engorged Boophilus microplus females of the SP-resistant Parkhurst strain • Solvent: dimethyl sulphoxide
10 mg of active ingredient are dissolved in 0.5 ml of dimethyl sulphoxide. For the purpose of preparing a suitable formulation, the active ingredient solution is diluted with water to the concentration desired in each case.
This active ingredient formulation is pipetted into tubes. 8-10 ticks are transferred into a further tube with holes. The tube is immersed into the active ingredient formulation, and all ticks are completely wetted. After the liquid has run out, the ticks are transferred onto filter discs in plastic dishes and stored in a climate-controlled room. The efficacy is assessed after 7 days by the number of fertile eggs laid. Eggs whose fertility is not outwardly visible are stored in glass tubes in a climate-controlled cabinet until the larvae hatch. Efficacy of 100% means that none of the ticks has laid any fertile eggs.

Boophilus microplus [6] = assay: Boophilus microplus test (BOOPMI injection), Example 11; assay type: in vivo; conditions: application rate 20 μg/animal, injected into abdomen, after 7 days
Procedure, shortened: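 Efficacy rated from fertile egg laying: 100% means none of the ticks laid fertile eggs, read after 7 days. Compound, dissolved and diluted in DMSO, was delivered by abdominal injection, and ticks were kept in dishes under climate control.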

[7] = tested on: green peach aphid (Myzus persicae); assay: Myzus test (MYZUPE spray treatment), Example 17; assay type: in vivo; conditions: china cabbage leaf discs sprayed, after 6 days
Procedure, shortened: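 Efficacy recorded at 6 days as % kill, where 100% means every aphid dead and 0% none. Spray applied to Brassica pekinensis leaf discs bearing mixed-stage aphids; active ingredient dissolved in acetone with dimethylformamide and emulsifier, then diluted with emulsifier-containing water.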

[8] = tested on: green peach aphid (Myzus persicae); assay: Myzus test (MYZUPE spray treatment), Example 5; assay type: in vivo; conditions: application rate 20 g/ha, china cabbage leaf discs sprayed, after 6 days
Method: Myzus Test (MYZUPE Spray Treatment)
• Solvent: 78 parts by weight of acetone • 1.5 parts by weight of dimethylformamide • Emulsifier: 0.5 part by weight of alkylaryl polyglycol ether
To prepare an active ingredient formulation, 1 part by weight of active ingredient is mixed with the stated amounts of solvent and emulsifier, and the concentrate is diluted with emulsifier-containing water to the desired concentration. Leaf discs from china cabbage (Brassica pekinensis) infested by all stages of the green peach aphid (Myzus persicae) are sprayed with an active ingredient formulation of the desired concentration.
After 6 days, the efficacy in % is determined. 100% means that all aphids were killed; 0% means that no aphids were killed.

[9] = tested on: red spider mite (Tetranychus urticae); assay: Tetranychus test, OP-resistant (TETRUR spray treatment), Example 8; assay type: in vivo; conditions: application rate 20 g/ha, common bean leaf discs sprayed, after 6 days
Procedure, shortened: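 Bean (Phaseolus vulgaris) leaf discs carrying all stages of OP-resistant Tetranychus urticae sprayed with compound in acetone/DMF with emulsifier, diluted in water to the test concentration. Mortality scored after 6 days as % efficacy (100% = all mites killed).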

[10] = tested on: armyworm (Spodoptera frugiperda); assay: Spodoptera frugiperda test (SPODFR spray treatment), Example 15; assay type: in vivo; conditions: maize leaf discs sprayed, after 7 days
Procedure, shortened: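 Caterpillars placed on dried, sprayed Zea mays leaf discs; formulation of acetone, dimethylformamide and emulsifier diluted with emulsifier-containing water to test concentration. Percent kill scored on day 7.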

[11] = tested on: mustard beetle (Phaedon cochleariae); assay: Phaedon test (PHAECO spray treatment), Example 16; assay type: in vivo; conditions: Phaedon cochleariae, foliar; application rate 500 g/ha, china cabbage leaf discs sprayed, after the desired time; read-out: efficacy in %
Procedure, shortened: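 Chinese cabbage leaf discs sprayed with acetone/DMF-emulsifier formulation of active ingredient diluted in emulsifier-containing water, then infested with mustard beetle larvae after drying. Efficacy scored as % larval kill (100% = all killed, 0% = none) after the chosen time.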

[12] = tested on: red spider mite (Tetranychus urticae); assay: Tetranychus test; OP-resistant (TETRUR spray treatment), Example 18; assay type: in vivo; conditions: Tetranychus urticae, foliar, 144 h; application rate 500 g/ha, common bean leaf discs sprayed, after 6 days; read-out: efficacy in %
Method: Tetranychus Test; OP-Resistant (TETRUR Spray Treatment)
as §1
To prepare an appropriate active ingredient formulation, 1 part by weight of active ingredient is mixed with the stated amounts of solvent and emulsifier, and the concentrate is diluted with emulsifier-containing water to the desired concentration. Leaf discs from the common bean (Phaseolus vulgaris) infested by all stages of the red spider mite (Tetranychus urticae) are sprayed with an active ingredient formulation of the desired concentration.
After 6 days, the efficacy in % is determined. 100% means that all spider mites were killed; 0% means that no spider mites were killed.

Boophilus microplus [13] = assay: Boophilus microplus test (BOOPMI injection), Example 1; assay type: in vivo; conditions: application rate 20 μg/animal, injected into abdomen, after 7 days
Procedure, shortened: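 Compound in DMSO, diluted with water, injected into the abdomen of engorged ticks, which were then held in a climate-controlled room. Efficacy was scored after 7 days from fertile egg laying, with 100% meaning no tick laid fertile eggs.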

Ctenocephalides felis [14] = assay: Ctenocephalides felis oral (CTECFE), Example 2; assay type: in vivo; conditions: application rate 20 ppm in citrated cow's blood, after 2 days
Method: (§2) Ctenocephalides felis Oral ([…]) • Solvent: 1 part by weight of dimethyl sulphoxide For the purpose of preparing an active ingredient formulation, 10 mg of active ingredient are mixed with 0.5 ml of dimethyl sulphoxide. A portion of the concentrate was diluted with citrated cow's blood and the desired concentration was prepared. 20 unfed adult fleas (Ctenocephalides felis) are placed into a chamber sealed at the top and bottom with gauze. A metal cylinder with its lower end sealed with Parafilm is placed onto the chamber. The cylinder contains the blood-active ingredient preparation, which can be consumed by the fleas through the Parafilm membrane. After 2 days, the kill rate in % is determined. 100% means that all fleas were killed; 0% means that no fleas were killed.

Lucilia cuprina larvae = assay: Lucilia cuprina test (LUCICU), Example 3; assay type: in vivo; conditions: application rate 20 ppm, treated horsemeat, after 2 days
Method: Lucilia cuprina Test (LUCICU) • Solvent: dimethyl sulphoxide To prepare an active ingredient formulation, 10 mg of active ingredient are mixed with 0.5 ml of dimethyl sulphoxide, and the concentrate is diluted with water to the desired concentration. Vessels containing horsemeat which has been treated with the active ingredient formulation of the desired concentration are populated with Lucilia cuprina larvae. After 2 days, the kill rate in % is determined. 100% means that all larvae were killed; 0% means that no larvae were killed.

Musca domestica adults = assay: Musca domestica test (MUSCDO), Example 14; assay type: in vivo; conditions: application rate 100 ppm, treated sponge, after 2 days
Procedure, shortened: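 Compound dissolved in DMSO and diluted in water to the test concentration, then applied to a sponge in vessels holding adult flies. Percent kill scored after 2 days (100% = all flies dead).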

Ctenocephalides felis [15] = assay: Ctenocephalides felis oral (CTECFE), Example 12; assay type: in vivo; conditions: application rate 100 ppm in citrated cow's blood, after 2 days
Method: as §2, with “preparing an appropriate active ingredient” for “preparing an active ingredient”, “the concentrate is diluted with” for “the concentrate was diluted with”, “desired concentration is established. About 20 unfed” for “desired concentration was prepared. 20 unfed”

SMILES: O=C(/C=C/c1ccc(C(=O)Nc2ccc(Cl)nc2)c(C(F)(F)F)c1)NC(c1cccc(C(F)(F)F)c1)C(F)(F)F (centres unmarked) [Ia-72]
efficacy in % [1]: 83%
efficacy in % [2]: 100%
logP [3]: HPLC-MS: logP = 3.73; mass

SMILES: O=C(/C=C/c1ccc(C(=O)NC2CCC2)c(Cl)c1)NC(c1cccc(C(F)(F)F)c1)C(F)(F)F (centres unmarked) [Ia-162]
kill rate in % (efficacy) [4]: 100%
efficacy in % (fertile eggs laid) [5]: 100%
efficacy in % (fertile eggs laid) (Boophilus microplus [6]): 100%
efficacy in % ([7]; application rate 100 g/ha): 100%
logP [3]: HPLC-MS: logP = 3.59; mass

SMILES: O=C(/C=C/c1ccc(C(=O)Nc2ccccn2)c(C(F)(F)F)c1)NC(c1cc(Cl)cc(C(F)(F)F)c1)C(F)(F)F (centres unmarked) [Ia-82]
efficacy in % [1]: 83%
efficacy in % [2]: 100%
efficacy in % (fertile eggs laid) (Boophilus microplus [6]): 100%
logP [3]: HPLC-MS: logP = 4.32; mass

SMILES: Cc1cc(/C=C/C(=O)NC(c2cccc(C(F)(F)F)c2)C(F)(F)F)ccc1C(=O)NCCC1CC1 (centres unmarked) [Ia-115]
efficacy in % [8]: 90%
efficacy in % [2]: 100%
efficacy in % [9]: 90%
efficacy in % ([7]; application rate 100 g/ha): 100%
logP [3]: HPLC-MS: logP = 3.61 mass

chromatographic logP ([3]; reverse-phase C18 HPLC column, pH 2.7, HPLC, C18 reverse phase, 43° C., acidic range pH 2.7, calibration with alkan-2-ones): 3.37
SMILES: CC(CF)NC(=O)c1ccc(/C=C/C(=O)NC(c2cccc(C(F)(F)F)c2)C(F)(F)F)cc1C(F)(F)F (centres unmarked) [Ia-75, N-(1-Fluoropropan-2-yl)-4-[(1E)-3-oxo-3-({2,2,2-trifluoro-1-[3-(trifluoromethyl)phenyl]-ethyl}amino)prop-1-en-1-yl]-2-(trifluoromethyl)benzamide]
efficacy in % [8]: 80%
efficacy in % [2]: 100%
efficacy in % [9]: 100%
pest or weed control at 0.02 mg (Boophilus microplus [6]; Rhipicephalus microplus, 168 h, read-out: efficacy in % (fertile eggs laid)): 100%
pest or weed control at 500 g/ha ([10]; Spodoptera frugiperda, foliar, 168 h, application rate 500 g/ha, read-out: efficacy in %): 100%
pest or weed control at 500 g/ha [11]: 100%
pest or weed control at 500 g/ha [12]: 100%

SMILES: O=C(/C=C/c1ccc(C(=O)NCc2ccccn2)c(Br)c1)NC(c1cccc(C(F)(F)F)c1)C(F)(F)F (centres unmarked) [Ia-41]
efficacy in % (fertile eggs laid) (Boophilus microplus [13]): 100%
kill rate in % (efficacy) (Ctenocephalides felis [14]): 100%
kill rate in % (efficacy) (Lucilia cuprina larvae): 90%
efficacy in % [8]: 100%
efficacy in % [2]: 100%
efficacy in % [9]: 100%
efficacy in % (fertile eggs laid) (Boophilus microplus [6]): 100%
efficacy in % ([7]; application rate 500 g/ha): 90%
logP [3]: HPLC-MS: logP = 2.76; mass

SMILES: O=C(/C=C/c1ccc(C(=O)NC2CC2)c(C(F)(F)F)c1)NC(c1cccc(C(F)(F)F)c1)C(F)(F)F (centres unmarked) [Ia-23]
efficacy in % (fertile eggs laid) (Boophilus microplus [13]): 100%
kill rate in % (efficacy) (Ctenocephalides felis [14]): 100%
kill rate in % (efficacy) (Lucilia cuprina larvae): 100%
efficacy in % [1]: 83%
efficacy in % [2]: 100%
efficacy in % (fertile eggs laid) (Boophilus microplus [6]): 100%
kill rate in % (efficacy) (Musca domestica adults): 100%
efficacy in % ([7]; application rate 500 g/ha): 100%
logP [3]: HPLC-MS: logP = 3.18; mass

SMILES: CC(CF)NC(=O)c1ccc(/C=C/C(=O)NC(c2cccc(C(F)(F)F)c2)C(F)(F)F)cc1Cl (centres unmarked) [Ia-112]
efficacy in % [8]: 100%
efficacy in % [2]: 100%
efficacy in % [9]: 100%
efficacy in % (fertile eggs laid) [5]: 100%
efficacy in % (fertile eggs laid) (Boophilus microplus [6]): 100%
logP [3]: HPLC-MS: logP = 3.25 mass

SMILES: O=C(/C=C/c1ccc(C(=O)Nc2ccccn2)c(C(F)(F)F)c1)NC(c1cccc(C(F)(F)F)c1)C(F)(F)F (centres unmarked) [Ia-54]
efficacy in % [1]: 100%
efficacy in % [2]: 100%
efficacy in % [9]: 100%
efficacy in % (fertile eggs laid) (Boophilus microplus [6]): 100%
kill rate in % (efficacy) (Ctenocephalides felis [15]): 95%
logP [3]: HPLC-MS: logP = 3.58; mass

SMILES: C#CC(C)NC(=O)c1ccc(/C=C/C(=O)NC(c2cccc(C(F)(F)F)c2)C(F)(F)F)cc1Cl (centres unmarked) [Ia-161]
kill rate in % (efficacy) [4]: 100%
efficacy in % (fertile eggs laid) [5]: 98%
efficacy in % (fertile eggs laid) (Boophilus microplus [6]): 100%
kill rate in % (efficacy) (Musca domestica adults): 80%
efficacy in % ([10]; application rate 100 g/ha): 100%
efficacy in % ([7]; application rate 100 g/ha): 90%
logP [3]: HPLC-MS: logP = 3.43; mass
